Each block holds one molecule with its values, some of them ahead of it. *1 amine or outer side, *2 acyl side, *3 side chain or, on linkers, in order; H or OH if unused. Primed or numbered codes have the meaning given here. Where no end group is shown, it is not given here. [ ]: non-standard residue; d: D form. Atz = (S)-2-amino-3-(1H-1,2,3-triazol-4-yl)propanoyl residue, substituent (PEG) on triazole N1, O=C([C@H](Cc1cn([*:3])nn1)N[*:1])[*:2]; Oic = O=C(O)[C@@H]1C[C@@H]2CCCC[C@@H]2N1; Phe(4-Cl) = N[C@@H](Cc1ccc(Cl)cc1)C(=O)O; hArg = N=C(N)NCCCC[C@H](N)C(=O)O; Cha = N[C@@H](CC1CCCCC1)C(=O)O; 20K‑mPEG = 20 kDa methoxy-PEG; 40K‑mPEG = 40 kDa methoxy-PEG; pGlu = O=C1CC[C@@H](C(=O)O)N1; PEG10′ = not defined here; Nle = CCCC[C@H](N)C(=O)O; Mpa = O=C(O)CCS
Key:
APJ receptor [1] = molecular target: T1, APJ receptor (Rattus norvegicus, UniProt Q9JHG3); test: EC50
T1 construct: expressed in transfected cells; CHO is named only for the cAMP assay
T1 sequence (Q9JHG3 whole entry, looked up): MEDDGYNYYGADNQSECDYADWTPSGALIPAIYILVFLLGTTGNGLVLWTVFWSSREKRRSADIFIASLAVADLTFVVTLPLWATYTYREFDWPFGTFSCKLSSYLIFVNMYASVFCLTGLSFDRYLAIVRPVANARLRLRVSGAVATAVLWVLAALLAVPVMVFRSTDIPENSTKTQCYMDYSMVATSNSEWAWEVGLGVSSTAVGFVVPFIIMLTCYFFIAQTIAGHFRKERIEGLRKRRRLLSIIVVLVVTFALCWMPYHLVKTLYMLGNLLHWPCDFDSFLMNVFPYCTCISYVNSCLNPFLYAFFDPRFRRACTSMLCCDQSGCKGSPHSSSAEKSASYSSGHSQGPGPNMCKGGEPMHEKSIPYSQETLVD
Excerpt: Table printed on a drawing sheet, FIGURE 11
The patent's description of the figure: FIG. 11. Effects of peptide valency on in vitro activity.
First copying reader's note: The sheet prints no unit for the EC50 column; the plot under the table ([35S]GTPγS binding, rAPJ stable cell line) is not copied.

[2] = system: healthy rats and rats having MI-induced heart failure; test: In vivo cardiac hemodynamics (Millar PV loop, femoral arterial pressure) in healthy and MI-induced heart failure rats; design: species or system rat; settings: for mean dp/dt max increase: intravenous infusion, FIG. 9
Method: The cardiac function of healthy rats and the rats having MI (myocardial infarction)-induced heart failure was measured via the Millar PV loop system and femoral arterial pressure catheter were examined.
Male Lewis rats at 2-3 months of age were used for the studies. MI was induced by ligation of the left anterior descending coronary artery (LAD). Echocardiography was performed at 1 week post-MI for animal enrollment. If ejection fraction (EF) was more than 40% and no infarct was identified from echocardiography images, these animals were excluded from the study. The Millar PV loop catheter was inserted into the right common carotid artery and then advanced to the left ventricle (LV) for cardiovascular hemodynamic assessment. The arterial pressure catheter was inserted into a femoral artery for peripheral blood pressure monitoring.
Experiments were performed either on six-seven weeks post-MI rat, or healthy rats. […] Test articles were given intravenously via jugular vein, and 3 sets of peptide doses were used in the experiment. […] At the end of the experiment, the infarct size was verified by gross morphology if MI rats were used in the study.
Animals in MI groups had very similar infarct size (38-39% of LV) among the groups (results not shown).

[3] = system: isolated Langendorff rat heart; test: Langendorff isolated rat heart, hemodynamic cardiac function; settings: control rats, FIGS. 7 and 8
Excerpt: To assess the hemodynamic cardiac function of the peptides a Langendorff isolated heart system was used. The isolated heart from rat provides broad spectrum of measurements that can include biochemical, metabolic, morphological and physiological indices. The limitations/advantages of the method include absence of neurohormonal influences, neural regulation and high coronary flows. Such limitations, however, are offset by the ability to study direct cardiac effects without systemic circulation and a host of peripheral interactions.
The reproducibility and accuracy of measurements and relatively low costs over in vivo studies for profiling drugs outweigh any limitations of this method. Therefore, this method provides excellent dose-response relationship and sheds critical insight into the pharmacological and physiological properties of the molecules of interest.
The animals were anesthetized upon administration of 50-100 mg/kg dose of sodium pentobarbital for rat via the intraperitoneal route. The heart was excised and gently cradled between fingers to avoid injury followed by lifting slightly before incising the aorta, vena cava and pulmonary vessels Immediately after excision of the heart with aorta, the heart was mounted onto the cannula in the Langendorff apparatus via the aorta. The heart was perfused with modified oxygenated Krebs-Henseleit buffer pH7.5 and equilibrated with 95% O2/5% CO2 at 37° C. The perfusion was performed at a constant flow of 10 ml/min and paced at 300 bpm. The pressure was measured through a pressure sensing balloon catheter inserted in the LV cavity. The intrinsic inotropy (force of muscle contraction) and lusitropy (cardiac relaxation) effects of the heart were assessed by dp/dtmax and dp/dtmin.
These figures illustrate improvement in both systolic and diastolic function of normal hearts with peptides of SEQ ID NOs: 23 and 24.

isolated cardiomyocyctes = settings: isolated cardiomyocytes; Barnes et al.; cited from earlier work
APJ receptor [4] = test: EC50 IP (µM)
Excerpt: Table printed on a drawing sheet, FIGURE 3B
Head of the field: EC50 IP (µM)
Section band inside the table: Peptides with 525 Da PEG modification
The patent's description of the figure: FIGS. 3A-C.
First copying reader's note: Row 2 is a section heading spanning all columns; blanks inside names and sequences only mark line breaks within the printed cell.
Where the first naming reader finds the target: passage: An “APJ agonist” should be understood to refer to a molecule that is able to activate the APJ receptor.

human APJ = molecular target: T2, human APJ (Homo sapiens, UniProt P35414); test: cAMP assay, stable CHO cell line expressing human APJ; assay type: cell-based; settings: FIG. 5; cAMP seen with either human or rat APJ stable cell lines
T2 construct: expressed in transfected cells
T2 sequence (P35414 1-380): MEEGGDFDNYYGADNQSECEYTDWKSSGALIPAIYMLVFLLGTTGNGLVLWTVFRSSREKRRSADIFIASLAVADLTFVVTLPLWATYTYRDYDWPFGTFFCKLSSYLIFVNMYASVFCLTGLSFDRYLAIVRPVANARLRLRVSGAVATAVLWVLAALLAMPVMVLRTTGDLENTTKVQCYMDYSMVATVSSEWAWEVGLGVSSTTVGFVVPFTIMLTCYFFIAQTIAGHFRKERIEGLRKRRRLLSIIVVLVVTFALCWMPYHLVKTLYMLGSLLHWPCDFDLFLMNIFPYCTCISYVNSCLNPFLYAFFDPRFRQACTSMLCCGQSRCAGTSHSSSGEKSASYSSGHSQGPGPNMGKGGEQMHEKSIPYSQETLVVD
Method: Stable CHO cell lines expressing APJ were used for cAMP assays. The cells were incubated with stimulation buffer containing HANK's buffer, forskolin and 0.5 mM IBMX in the absence or presence of various concentrations' of peptides at 37° C. for 45 min. The cAMP level was determined using a cyclic AMP kit (DiscoverX) according to the manufacturer's instructions.

rat APJ receptor = molecular target: T3, rat APJ receptor (rat, UniProt Q9JHG3 1-377); test: cell-based or functional assay
T3 sequence (looked up): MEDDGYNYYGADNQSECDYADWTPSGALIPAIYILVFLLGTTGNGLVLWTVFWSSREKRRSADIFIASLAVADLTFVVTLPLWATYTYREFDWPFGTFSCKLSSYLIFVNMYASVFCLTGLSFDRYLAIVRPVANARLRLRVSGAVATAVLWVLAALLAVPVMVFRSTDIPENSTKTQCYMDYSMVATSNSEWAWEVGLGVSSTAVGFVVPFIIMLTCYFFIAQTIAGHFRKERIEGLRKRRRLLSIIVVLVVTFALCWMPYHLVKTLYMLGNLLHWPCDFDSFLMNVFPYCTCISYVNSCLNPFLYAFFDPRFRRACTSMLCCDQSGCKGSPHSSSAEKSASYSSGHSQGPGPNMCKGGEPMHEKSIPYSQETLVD

[5] = dose ranges from 5.5 to 88 μg/kg

Molecule: SEQ ID NO: 131: 20 kDa PEG-tetrakis(Atz-KFRRQRP[hArg][Cha]SHKG[Oic][Nle]P[4-Cl—F]) (KFRRQRP[hArg][Cha]SHKG[Oic][Nle]P[Phe(4-Cl)]; not fully specified (N-terminus); also: 20 kDa PEG carries four peptide copies)
EC50 (APJ receptor [1]): 0.794 nM

Molecule: [PE65;hArg68;Cha69;3-(1-(2-aminoethoxy(PEG9)ethyl)-1H-1,2,3-triazol-4-yl)Ala70;Oic74;Nle75;4-Cl-F77]Apelin-13(65-77) ([pGlu]RP[hArg][Cha][Atz](PEG10′)HKG[Oic][Nle]P[Phe(4-Cl)]) [SEQ ID NO: 23]
Heart rate (HR) increase ([2]; MI rats, intravenous infusion of 88 μg/kg accumulative dose): up to 10.6%
mean dp/dt max increase ([2]; MI rats): 24.5%
other cardiac hemodynamic changes [2, 5]: No other cardiac hemodynamic changes were observed
peripheral vascular resistant measurement such as mean arterial pressure [2, 5]: No significant changes
mean dp/dt max increase ([2]; healthy rats): 32%
dp/dtmax [3]: dose dependent increase
dp/dtmin [3]: decrease
systolic pressure [3]: increases

Molecule: apelin
increase in sarcomere shortening (isolated cardiomyocyctes): up to 140%

Molecule: {Hydrogen}[PE]RP[hArg][Cha][Pra(NPeg9) ]HKG[Oic][Nle][4-Cl-F]{FreeAcid}
EC50 (APJ receptor [4]): 133 nM

Molecule: {Thiopropionyl(20K-mPEG)}LLRP[hArg][Cha]SHKG[Oic][Nle]P[4-Cl—F]{FreeAcid} ({mPEG 20 kDa}-[Mpa]LLRP[hArg][Cha]SHKG[Oic][Nle]P[Phe(4-Cl)]-OH) [SEQ ID NO: 124]
agonist activity relative to pyr apelin-13 (SEQ ID NO: 128) (human APJ): potent and act as a full agonist

EC50 (GTPγS assay) (rat APJ receptor): 1.37 nM
potency (GTPγS assay), fold reduction relative to 20 kDA (SEQ ID NO: 24) (rat APJ receptor): 5 fold
Molecule: {40K‑mPEG-Thiopropionyl}-KFRRQRP[hArg][Cha]SHKG[Oic][Nle]P[Phe(4-Cl)]-OH [{Thiopropionyl(40K-mPEG)}KFRRQRP[hArg][Cha]SHKG[Oic][Nle]P[4-Cl-F]{FreeAcid}]

EC50 (GTPγS assay) (rat APJ receptor): 0.252 nM
Molecule: {20K‑mPEG-Thiopropionyl}-KFRRQRP[hArg][Cha]SHKG[Oic][Nle]P[Phe(4-Cl)] [Thiopropionyl(20K-mPEG)-KFRRQRP[hArg][Cha]SHKG[Oic][Nle]P[4-Cl-F]]

Reference: patent publication US20160067347A1, “APJ RECEPTOR AGONISTS AND USES THEREOF” (AMGEN INC., priority 2012, published 2016)
